Assay results: US11307205B2, “Non-radioactive cytotoxicity assays” (University of Southern California, priority 2016, dated 2022)

Key:
BCBL-1-pLenti-GLuc cells = assay: Matador assay, drug induced cytotoxicity, BCBL-1; settings: 96 hours, different doses
Procedure: (§2) The cell pellets were lysed in 1× Renilla Luciferase Assay Lysis Buffer by diluting one volume of 5× Renilla Luciferase Assay Lysis Buffer (Promega, Cat #E2820) into four volumes of distilled water. GLuc activity was measured in the cellular supernatants and cell lysates fractions separately in triplicate by addition of 0.25× coelentrazine assay buffer (15 μl of assay buffer added to 15 μl of sample in a 384 well plate) to each fraction. For each sample, the average GLuc activity in the cellular supernatant was divided by the average GLuc activity in the cell lysates to normalize for difference in the number of GLuc expressing cells.

BC-3-pLenti-GLuc cells = assay: Matador assay, drug induced cytotoxicity, BC-3; type: cell-based; settings: 96 hours, different doses
Procedure: as §2

[1] = system: CAR CD8SP2-CD19MM-(vL-vH)-Myc-BBz-T2A-PAC T cell induced death of RAJI cells stably expressing GLuc; assay: Matador assay, drug modulation of CAR-T cell induced lysis of RAJI-GLuc cells; type: cell-based, Human; settings: E:T 5:1, 4 hours co-culture; Dasatinib 50 nM and 100 nM
Procedure: Human peripheral blood T cells isolated using CD3 magnetic beads were infected with lentiviruses expressing the CAR construct CD8SP2-CD19MM-(vL-vH)-Myc-BBz-T2A-PAC [SEQ ID NO: 82] targeting CD19 and selected with puromycin. CAR-T cells were pre-incubated with the indicated concentrations of Dasatinib and Imatinib for approximately 30 min at 37° C. The drug-treated and untreated T cells were plated in a white 384-well plate. […] Dasatinib (Das) and Imatinib (Imat) were added to the wells to maintain the final concentrations as indicated. […] Therefore, the assay can be used to screen for and identify candidate compounds that modulate the activity of cytotoxic cells, such as cytotoxic T cells, NK cells, CAR-T cells and T cells expressing engineered TCRs.

L428-GLuc cells = assay: Matador assay, antibody drug conjugate induced cell death, L428; type: cell-based; settings: 5 days of drug treatment
Procedure: (§1) We next used the Matador cytotoxicity assay to measure cell death induced by CD30-directed antibody-drug-conjugate (ADC), Brentuximab vedotin (Adcetris). […] Similarly, Jurkat cells were transduced with MSCVhygro-GLuc-HA-G02 (SEQ ID NO: 95) retroviral vector and selected with hygromycin to generate Jurkat-GLuc stable cell line. These GLuc-expressing target cells were plated at a concentration of 10×10^5 cells/well in a flat-bottom 24 well plate in 500 μl of phenol-red-free RPMI medium with 10% FBS and treated with the indicated dose of Brentuximab vedotin. After 5 days of drug treatment, the cells were mixed well, collected in 1.5 ml microfuge tubes and divided into 3 groups of 166 μl each. For the first group, the cells with cell supernatant were directly assayed for luciferase activity by plating 30 μl of cells/well in a white 384 well plate in triplicate. For the second group, 166 μl of cells were centrifuged and only cell supernatants were collected in a new tube and plated at 30 μl/well in triplicate in a white 384 well plate. […] The luciferase activity was precisely measured by BioTek synergy plate reader by injecting 0.5× CTZ assay buffer containing native coeloentrazine into each well of the 384 well plate in a well mode. […]

Jurkat-GLuc cells = assay: Matador assay, antibody drug conjugate induced cell death, Jurkat; type: cell-based; settings: 5 days of drug treatment
Procedure: as §1

KMH2-GLuc cells = assay: Matador assay, antibody drug conjugate induced cell death, KMH2; type: cell-based; settings: 5 days of drug treatment
Procedure: as §1

[2] = system: RAJI cells expressing GLuc; assay: Antibody-dependent cellular cytotoxicity (ADCC) Matador assay; type: cell-based
Procedure: Antibody-dependent cellular cytotoxicity (ADCC) assay was performed performed essentially as described earlier (Teeling, French et al. 2004). To determine the cytotoxicity of Rituximab monoclonal antibody, the cell death was assessed using Matador assay. Peripheral Blood Mononuclear Cells (PBMC) were isolated by Ficoll-Hypaque gradient centrifugation from buffy coat cells obtained from a de-identified healthy donor as a source of natural effector. […] The cells were either left untreated, or treated with 1 μg/ml or 10 μg/ml of Rituximab. The plates were incubated at 37° C. for 4 hours in a CO2 incubator. After incubation for 4 hours, the cell death was assessed by luciferase assay by addition of CTZ assay buffer containing native coelentrazine to the wells as described earlier.

[3] = Stability of luciferases in cell culture supernatants at 37° C. under Matador assay conditions; type: physicochemical; settings: for time for which luminescence was stable: cell culture supernatants of K562 cells co-cultured with NK92MI
Procedure: Post-incubation, the cell-free supernatants were divided into 7 different tubes and frozen immediately at −80° C. The tubes were then incubated at 37° C. for 0, 0.5, 1, 2, 4, 6, and 24 hours.
Although thermostable luciferases are stable at 37° C., it was not obvious whether thermostability is the only criteria for stability of a reporter under the conditions used in the cytotoxicity assays. Thus, a thermostable luciferase could be degraded under the culture conditions of the cytotoxicity assay due to the activity of proteases that are present in the serum or are released during the process of cell death. Therefore, to examine whether thermostable luciferases are suitable for inclusion in the Matador cytotoxicity assay, K562 cells stably expressing LucPPe-146-1H2 mutant were plated in a 6-well plate, treated with media alone (control) or co-cultured with NK92MI at Effector:Target (E:T) ratio of 1:1 for 4 hours. After incubation, cell-free supernatants were transferred into 7 different tubes and frozen immediately at −80° C. The tubes were directly transferred to 37° C. (from −80° C.) and were incubated for indicated time periods (0 to 24 hours). The luminescence was measured by adding D-luciferin containing assay buffer directly to each well in well mode. […] Furthermore, the luminescence signal was stable in the cell culture medium for nearly 4-6 hours.

[4] = cited from earlier work
[5] = Stability of luciferase activity in supernatants after freezing and thawing; type: physicochemical; settings: supernatants frozen, thawed two weeks later
Text: Two weeks later, the supernatants were thawed and then re-assayed after addition of coeloentrazine.

COc1c(C)cnc(Cn2cnc3c(Cl)nc(N)nc32)c1C [BIIB021]
GLuc activity in the supernatant normalized to cell lysates (BCBL-1-pLenti-GLuc cells): significant increase in GLuc activity in the supernatant
GLuc activity in the supernatant normalized to cell lysates (BC-3-pLenti-GLuc cells): significant increase in GLuc activity in the supernatant

Cc1ccc(NC(=O)c2ccc(CN3CCN(C)CC3)cc2)cc1Nc1nccc(-c2cccnc2)n1 [Imatinib]
CAR-T cell induced cell death (GLuc activity) [1]: no effect

Cc1sc2c(c1C)C(c1ccc(Cl)cc1)=N[C@@H](CC(=O)OC(C)(C)C)c1nnc(C)n1-2 [JQ1]
GLuc activity in the supernatant normalized to cell lysates (BCBL-1-pLenti-GLuc cells): significant increase in GLuc activity in the supernatant
GLuc activity in the supernatant normalized to cell lysates (BC-3-pLenti-GLuc cells): significant increase in GLuc activity in the supernatant

Brentuximab vedotin
GLuc activity in cell supernatant normalized for GLuc activity in cell lysates (L428-GLuc cells): significant increase in GLuc activity in cell supernatant
GLuc activity in the supernatant (L428-GLuc cells; not normalized): increase in GLuc activity in the supernatant
GLuc activity in cell supernatant normalized for GLuc activity in cell lysates (Jurkat-GLuc cells): significant increase in GLuc activity in cell supernatant
GLuc activity in the supernatant (Jurkat-GLuc cells; not normalized): increase in GLuc activity in the supernatant
GLuc activity in cell supernatant normalized for GLuc activity in cell lysates (KMH2-GLuc cells): significant increase in GLuc activity in cell supernatant
GLuc activity in the supernatant (KMH2-GLuc cells; not normalized): increase in GLuc activity in the supernatant

rituximab: Rituximab monoclonal antibody, obtained from Genentech
luciferase activity ([2]; RAJI cells stably expressing NLuc): Essentially similar results
increase in GLuc activity ([2]; in the presence of PBMC, 4 hours, vs untreated cells): greater than 10 fold
luciferase activity ([2]; in the presence of PBMC, 1 μg/ml and 10 μg/ml): increase in luciferase activity
luciferase activity ([2]; rituximab alone, 1 μg/ml and 10 m/ml, 4 hours, vs untreated cells): increase in luciferase activity

B1: Mluc7: Metrida longa Luc7 M43L/M110L variant, SEQ ID NO: 34 (protein)
chain: MNPTVNNDVNRGKMPGKKLPLEVLIELEANAFKAGCTRGCLICLSKIKCTAKMKQYIPGRCHDYGGDKKTGQAGIVGAIVDIPEISGFKEMEPLEQFIAQVDLCADCTTGCLKGLANVKCSELLKKWLPDRCASFADKIQKEAHNIKGLAGDR
modifications: MLuc7 (Metrida longa Luc7) M43L/M110L variant
time for which luminescence was stable [3]: 24 h

B2: NLuc: NanoLuc, SEQ ID NO: 32 (protein)
chain: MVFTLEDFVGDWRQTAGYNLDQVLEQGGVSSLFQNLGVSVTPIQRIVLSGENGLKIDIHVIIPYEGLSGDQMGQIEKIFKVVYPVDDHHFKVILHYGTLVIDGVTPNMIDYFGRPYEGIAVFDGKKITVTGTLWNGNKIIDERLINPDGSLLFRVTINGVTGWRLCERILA
modifications: NLuc (NanoLuc)
time for which luminescence was stable [3]: 24 h
time activity is retained in culture medium ([4]; 37° C.): > 15 h
specific activity relative to firefly or Renilla luciferases ([4]; configured for glow-type assays): ~150 fold

B3: TLuc16: TurboLuc16, SEQ ID NO: 33 (protein)
chain: MEAEAERGKLPGKKLPLEVLIELEANARKAGCTRGCLICLSKIKCTAKMKKYIPGRCADYGGDKKTGQAGIVGAIVDIPEISGFKEMEPMEQFIAQVDRCADCTTGCLKGLANVKCSDLLKKWLPGRCATFADKIQSEVDNIKGLAGD
modifications: TLuc (TurboLuc16)
time for which luminescence was stable [3]: 24 h

B4: LucPPe-146-1H2: thermostable luciferase from Photuris pennsylvanica, SEQ ID NO: 51 (protein)
chain: MADKNILYGPEPFYPLEDGTAGEQMFDALSRYAAIPGCIALTNAHTKENVLYEEFLKLSCRLAESFKKYGLKQNDTIAVCSENSLQFFLPVIASLYLGIIVAPVNDKYIERELIHSLGIVKPRIVFCSKNTFQKVLNVKSKLKSIETIIILDLNEDLGGYQCLNNFISQNSDSNLDVKKFKPYSFNRDDQVASIMFSSGTTGLPKGVMLTHKNIVARFSIAKDPTFGNAINPTSAILTVIPFHHGFGMMTTLGYFTCGFRVVLMHTFEEKLFLQSLQDYKVESTLLVPTLMAFLAKSALVEKYDLSHLKEIASGGAPLSKEIGEMVKKRFKLNFVRQGYGLTETTSAVLITPKGDAKPGSTGKIVPLHAVKVVDPTTGKILGPNEPGELYFKGPMIMKGYYNNEEATKAIIDNDGWLRSGDIAYYDNDGHFYIVDRLKSLIKYKGYQVAPAEIEGILLQHPYIVDAGVTGIPDEAAGELPAAGVVVQTGKYLNEQIVQDYVASQVSTAKWLRGGVKFLDEIPKGSTGKIDRKVLRQMLEKHTNG
modifications: LucPPe-146-1H2
time for which luminescence signal was stable in the cell culture medium ([3]; supernatants of K562 LucPPe-146-1H2 cells): 4 to 6 h

B5: Renilla Luc: Renilla Luc, SEQ ID NO: 49 (protein)
chain: MASKVYDPEQRKRMITGPQWWARCKQMNVLDSFINYYDSEKHAENAVIFLHGNAASSYLWRHVVPHIEPVARCIIPDLIGMGKSGKSGNGSYRLLDHYKYLTAWFELLNLPKKIIFVGHDWGACLAFHYSYEHQDKIKAIVHAESVVDVIESWDEWPDIEEDIALIKSEEGEKMVLENNFFVETMLPSKIMRKLEPEEFAAYLEPFKEKGEVRRPTLSWPREIPLVKGGKPDVVQIVRNYNAYLRASDDLPKMFIESDPGFFSNAIVEGAKKFPNTEFVKVKGLHFSQEDAPDEMGKYIKSFVERVLKNEQ
modifications: RLuc (Renilla Luc)
luciferase activity after freezing and thawing [5]: no major change
